Earlier results as cited in patent publication US6676963B1, “Ligand-targeted emulsions carrying bioactive agents” (Barnes-Jewish Hospital, priority 2000, dated 2004).
Like-named read-outs stand apart in the source and are kept apart here.

Conditions: for solubility in water / buffer (in words): water or aqueous buffer

CC(=O)O[C@H]1C(=O)[C@@]2(C)[C@H]([C@H](OC(=O)c3ccccc3)[C@]3(O)C[C@H](OC(=O)[C@H](O)[C@@H](NC(=O)c4ccccc4)c4ccccc4)C(C)=C1C3(C)C)[C@]1(OC(C)=O)CO[C@@H]1C[C@@H]2O [taxol, paclitaxel]
solubility in lipid emulsions (in words) (lipid emulsions such as Intralipid or Liposyn): insoluble in lipid emulsions | solubility in water / buffer (in words): insoluble in water | solubility in water / buffer (in words) (listed as paclitaxel): highly insoluble in buffer

COc1cccc2c1C(=O)c1c(O)c3c(c(O)c1C2=O)C[C@@](O)(C(=O)CO)C[C@@H]3O[C@H]1C[C@H](N)[C@H](O)[C@H](C)O1 [Doxorubicin, doxorubicin]
solubility in water / buffer (in words): highly water soluble
